Like-named read-outs stand apart in the source and are kept apart here.
How the values were obtained:
[1] = target: T1, NNMT (Homo sapiens, UniProt P40261); conditions: read-out: Literature value Ki, determined by SAHH coupled assay; cited from earlier work
T1 sequence (P40261 1-264): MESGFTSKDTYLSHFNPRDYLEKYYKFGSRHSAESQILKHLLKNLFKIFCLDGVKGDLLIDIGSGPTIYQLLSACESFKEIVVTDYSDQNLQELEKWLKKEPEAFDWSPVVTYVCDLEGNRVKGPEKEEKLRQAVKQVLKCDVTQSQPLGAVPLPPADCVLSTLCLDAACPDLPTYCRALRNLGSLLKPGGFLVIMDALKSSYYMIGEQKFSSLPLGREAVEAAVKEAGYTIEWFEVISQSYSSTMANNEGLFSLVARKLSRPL

[2] = target: T1, NNMT; test: FP-based competition binding assay with probe II138
[3] = target: T1, NNMT; conditions: read-out: Literature value Km; cofactor; cited from earlier work
[4] = target: T1, NNMT; test: SAHH-coupled fluorescence assay; assay type: biochemical; conditions: linker effect

Row | Ki [2] [µM] | Difference of Ki in FP assay in comparison with SAHH coupled assay ([2]; FP Ki versus SAHH-coupled Ki) | Loss in Ki in comparison with LL320 [4] | Compound | Ki [1] [µM] | Km [3] [µM]
1 | – | – | – | 1 methyl quinoline [1-MQ] | > 100 | –
2 | 20.3 ± 2.9 | – | – | C[S+](CC[C@H](N)C(=O)[O-])C[C@H]1O[C@@H](n2cnc3c(N)ncnc32)[C@H](O)[C@@H]1O (stereo partly drawn) [AdoMet, S-adenosyl-L-methionine] | – | 24 ± 6.8
3 | > 1000 | – | – | NC(=O)c1cccnc1 [NAM, nicotinamide] | > 100 | –
4 | – | less than 2 fold | about 100 fold | NCCCNc1ncnc2c1ncn2[C@@H]1O[C@H](CN(CC#Cc2cccc(C(N)=O)c2)CC[C@H](N)C(=O)O)[C@@H](O)[C@H]1O [compound 10] | – | –

From paper PMC7416818 (Analytical biochemistry, 2020)
